Tested on: MV-4-11 cells
Assay: Gene expression microarray analysis (Affymetrix PrimeView) and GSEA
Assay type: cell-based, human
Parameters: RFU PODN (11730768_x_at) / Fold change /veh PODN (11730768_x_at) / RFU LINC00158 (11744669_a_at) / Fold change /veh LINC00158 (11744669_a_at) / RFU DUSP10 (11751237_a_at) / Fold change /veh DUSP10 (11751237_a_at) / RFU ID3 (11757404_x_at) / Fold change /veh ID3 (11757404_x_at) / RFU PLEKHG5 (11737974_s_at) / Fold change /veh PLEKHG5 (11737974_s_at) / RFU LRRC4B (11730491_at) / Fold change /veh LRRC4B (11730491_at) / RFU GIMAP4 (11747438_a_at) / Fold change /veh GIMAP4 (11747438_a_at) / RFU KRT8 (11758183_x_at) / Fold change /veh KRT8 (11758183_x_at) / RFU CNN1 (11734310_a_at) / Fold change /veh CNN1 (11734310_a_at) / RFU VPS37D (11726825_at) / Fold change /veh VPS37D (11726825_at) / RFU C10orf10 (11716522_x_at) / Fold change /veh C10orf10 (11716522_x_at) / RFU KIR2DL2 /// KIR2DL4 /// KIR2DL5A /// KIR2DL5B /// KIR2DS1 /// KIR2DS2 /// KIR2DS3 /// KIR2DS4 /// KIR3DL3 /// KIR3DL3 /// KIR3DS1 (11738374_at) / Fold change /veh KIR2DL2 /// KIR2DL4 /// KIR2DL5A /// KIR2DL5B /// KIR2DS1 /// KIR2DS2 /// KIR2DS3 /// KIR2DS4 /// KIR3DL3 /// KIR3DL3 /// KIR3DS1 (11738374_at) / RFU C1QL1 (11718748_at) / Fold change /veh C1QL1 (11718748_at) / RFU TMPRSS4 (11747572_a_at) / Fold change /veh TMPRSS4 (11747572_a_at) / RFU HAMP (11756126_x_at) / Fold change /veh HAMP (11756126_x_at) / RFU RNFT2 (11725882_a_at) / Fold change /veh RNFT2 (11725882_a_at) / RFU NR4A2 (11747474_a_at) / Fold change /veh NR4A2 (11747474_a_at) / RFU ABCC12 (11746883_a_at) / Fold change /veh ABCC12 (11746883_a_at) / RFU TMEM136 (11760407_x_at) / Fold change /veh TMEM136 (11760407_x_at) / RFU CLDN22 /// WWC2 (11732394_at) / Fold change /veh CLDN22 /// WWC2 (11732394_at) / RFU HLA-DPB1 (11760878_x_at) / Fold change /veh HLA-DPB1 (11760878_x_at) / RFU SPINT1 (11716480_a_at) / Fold change /veh SPINT1 (11716480_a_at) / RFU GAP43 (11754022_s_at) / Fold change /veh GAP43 (11754022_s_at) / RFU A4GNT (11735810_at) / Fold change /veh A4GNT (11735810_at) / RFU PRB3 (11715151_x_at) / Fold change /veh PRB3 (11715151_x_at) / RFU TUBB4B (11761932_at) / Fold change /veh TUBB4B (11761932_at) / RFU CAPN14 (11732068_a_at) / Fold change /veh CAPN14 (11732068_a_at) / RFU TMCC2 (11721928_a_at) / Fold change /veh TMCC2 (11721928_a_at) / RFU IRGQ (11745062_a_at) / Fold change /veh IRGQ (11745062_a_at) / RFU FAM174B (11720279_a_at) / Fold change /veh FAM174B (11720279_a_at) / RFU TMPRSS4 (11748680_a_at) / Fold change /veh TMPRSS4 (11748680_a_at) / RFU FAM212B (11763350_a_at) / Fold change /veh FAM212B (11763350_a_at) / RFU PLEKHG5 (11743358_a_at) / Fold change /veh PLEKHG5 (11743358_a_at) / RFU ZSCAN30 (11745921_a_at) / Fold change /veh ZSCAN30 (11745921_a_at) / RFU CMKLR1 (11741424_a_at) / Fold change /veh CMKLR1 (11741424_a_at) / RFU LOC101060620 /// MAPK8IP1 (11723275_at) / Fold change /veh LOC101060620 /// MAPK8IP1 (11723275_at) / RFU SPTSSB (11747773_x_at) / Fold change /veh SPTSSB (11747773_x_at) / RFU PRSS12 (11739890_at) / Fold change /veh PRSS12 (11739890_at) / RFU BIN1 (11741810_x_at) / Fold change /veh BIN1 (11741810_x_at) / RFU WNT11 (11732464_a_at) / Fold change /veh WNT11 (11732464_a_at) / RFU C10orf10 (11716521_a_at) / Fold change /veh C10orf10 (11716521_a_at) / RFU C5orf56 (11738089_at) / Fold change /veh C5orf56 (11738089_at) / RFU CYB561 (11721691_x_at) / Fold change /veh CYB561 (11721691_x_at) / RFU ANKRD19P (11752326_a_at) / Fold change /veh ANKRD19P (11752326_a_at) / RFU OR2T12 /// OR2T33 /// OR2T8 (11738714_s_at) / Fold change /veh OR2T12 /// OR2T33 /// OR2T8 (11738714_s_at) / RFU VCAN (11748164_a_at) / Fold change /veh VCAN (11748164_a_at) / RFU JSRP1 (11732532_at) / Fold change /veh JSRP1 (11732532_at) / RFU KRTAP10-11 (11738290_x_at) / Fold change /veh KRTAP10-11 (11738290_x_at) / RFU MYO3A (11730013_a_at) / Fold change /veh MYO3A (11730013_a_at) / RFU EBF3 (11725865_a_at) / Fold change /veh EBF3 (11725865_a_at) / RFU CAMK2N1 (11719241_x_at) / Fold change /veh CAMK2N1 (11719241_x_at) / RFU C5orf56 (11738088_a_at) / Fold change /veh C5orf56 (11738088_a_at) / RFU OLFML3 (11715873_a_at) / Fold change /veh OLFML3 (11715873_a_at) / RFU LOC100653217 /// NTM (11731650_a_at) / Fold change /veh LOC100653217 /// NTM (11731650_a_at) / RFU MAPK11 (11762145_a_at) / Fold change /veh MAPK11 (11762145_a_at) / RFU FIZ1 (11724087_x_at) / Fold change /veh FIZ1 (11724087_x_at) / RFU OASL (11726364_x_at) / Fold change /veh OASL (11726364_x_at) / RFU SOX15 (11748057_x_at) / Fold change /veh SOX15 (11748057_x_at) / RFU CD79A (11719716_a_at) / Fold change /veh CD79A (11719716_a_at) / RFU HIST1H1D (11736915_at) / Fold change /veh HIST1H1D (11736915_at) / RFU CASKIN2 (11723855_a_at) / Fold change /veh CASKIN2 (11723855_a_at) / RFU LOC730098 (11760151_x_at) / Fold change /veh LOC730098 (11760151_x_at) / RFU OR4N2 (11742367_at) / Fold change /veh OR4N2 (11742367_at) / RFU PRRT2 (11749266_a_at) / Fold change /veh PRRT2 (11749266_a_at) / RFU SNX32 (11753110_a_at) / Fold change /veh SNX32 (11753110_a_at) / RFU CDHR5 (11726645_a_at) / Fold change /veh CDHR5 (11726645_a_at) / RFU RCAN1 (11760418_a_at) / Fold change /veh RCAN1 (11760418_a_at) / RFU FAM167A (11723789_a_at) / Fold change /veh FAM167A (11723789_a_at) / RFU FAM26E (11764081_at) / Fold change /veh FAM26E (11764081_at) / RFU ISYNA1 (11749810_s_at) / Fold change /veh ISYNA1 (11749810_s_at) / RFU ACY1 (11761880_at) / Fold change /veh ACY1 (11761880_at) / RFU 11764098_at / Fold change /veh 11764098_at / RFU SAMD14 (11745864_x_at) / Fold change /veh SAMD14 (11745864_x_at) / RFU NPB (11741838_a_at) / Fold change /veh NPB (11741838_a_at) / RFU TMPRSS6 (11731388_a_at) / Fold change /veh TMPRSS6 (11731388_a_at) / RFU KRTAP10-2 (11738614_at) / Fold change /veh KRTAP10-2 (11738614_at) / RFU ARHGAP8 /// PRR5-ARHGAP8 (11727945_x_at) / Fold change /veh ARHGAP8 /// PRR5-ARHGAP8 (11727945_x_at) / RFU KRTAP5-7 /// NADSYN1 (11734609_at) / Fold change /veh KRTAP5-7 /// NADSYN1 (11734609_at) / RFU RASL12 (11751679_a_at) / Fold change /veh RASL12 (11751679_a_at) / RFU CDKN2B (11736163_a_at) / Fold change /veh CDKN2B (11736163_a_at) / RFU PRF1 (11729649_at) / Fold change /veh PRF1 (11729649_at) / RFU, ZNF638 /// ZNF638-IT1 / Fold change vs veh, ZNF638 /// ZNF638-IT1 / RFU, PANK3 / Fold change vs veh, PANK3 / RFU, SH3YL1 / Fold change vs veh, SH3YL1 / RFU, ZEB2 / Fold change vs veh, ZEB2 / RFU, NRIP1 / Fold change vs veh, NRIP1 / RFU, PTTG1IP / Fold change vs veh, PTTG1IP / RFU, CAPN2 / Fold change vs veh, CAPN2 / RFU, MED14 / Fold change vs veh, MED14 / RFU, SNORA58 / Fold change vs veh, SNORA58 / RFU, C1orf63 / Fold change vs veh, C1orf63 / RFU, LRRFIP1 / Fold change vs veh, LRRFIP1 / RFU, NDUFAF7 / Fold change vs veh, NDUFAF7 / RFU, SLC12A2 / Fold change vs veh, SLC12A2 / RFU, IBTK / Fold change vs veh, IBTK / RFU, ESF1 / Fold change vs veh, ESF1 / Fold change vs veh, TMEM50B / RFU, TAOK1 / Fold change vs veh, TAOK1 / RFU, ACBD3 / Fold change vs veh, ACBD3 / RFU, TMA16 / Fold change vs veh, TMA16 / RFU, RWDD3 / Fold change vs veh, RWDD3 / RFU, BCAT1 / Fold change vs veh, BCAT1 / RFU, EDEM3 / Fold change vs veh, EDEM3 / RFU, TMEM33 / Fold change vs veh, TMEM33 / RFU, WDR75 / Fold change vs veh, WDR75 / RFU, AHCTF1 / Fold change vs veh, AHCTF1 / RFU, TFRC / Fold change vs veh, TFRC / RFU, ZDHHC17 / Fold change vs veh, ZDHHC17 / RFU, NOM1 / Fold change vs veh, NOM1 / RFU, ARL8B / Fold change vs veh, ARL8B / RFU, ZBTB11 / Fold change vs veh, ZBTB11 / RFU, TAMM41 / Fold change vs veh, TAMM41 / RFU, KIAA1704 /// LOC100996395 / Fold change vs veh, KIAA1704 /// LOC100996395 / RFU, ING1 / Fold change vs veh, ING1 / RFU, TRMT61B / Fold change vs veh, TRMT61B / RFU, FUBP3 / Fold change vs veh, FUBP3 / RFU, TP53 / Fold change vs veh, TP53 / RFU, TNKS2 / Fold change vs veh, TNKS2 / RFU, ZFP14 / Fold change vs veh, ZFP14 / RFU, ACTR2 / Fold change vs veh, ACTR2 / RFU, PPP3R1 / Fold change vs veh, PPP3R1 / RFU, PIK3R1 / Fold change vs veh, PIK3R1 / RFU, HNRNPA1 / Fold change vs veh, HNRNPA1 / RFU, RNF170 / Fold change vs veh, RNF170 / RFU, ZNF28 / Fold change vs veh, ZNF28 / RFU, RNGTT / Fold change vs veh, RNGTT / RFU, OGT / Fold change vs veh, OGT / RFU, BRD1 / Fold change vs veh, BRD1 / RFU, MARS / Fold change vs veh, MARS / RFU, ZNF655 / Fold change vs veh, ZNF655 / RFU, FAHD1 / Fold change vs veh, FAHD1 / RFU, BDP1 / Fold change vs veh, BDP1 / RFU, LRRCC1 / Fold change vs veh, LRRCC1 / RFU, ARID1A / Fold change vs veh, ARID1A / RFU, ZNF146 / Fold change vs veh, ZNF146 / RFU, ZNF330 / Fold change vs veh, ZNF330 / RFU, GPN3 / Fold change vs veh, GPN3 / RFU, C9orf123 / Fold change vs veh, C9orf123 / RFU, N4BP2L2 / Fold change vs veh, N4BP2L2 / RFU, ARFIP1 / Fold change vs veh, ARFIP1 / RFU, FAM179B / Fold change vs veh, FAM179B / RFU, BCL10 / Fold change vs veh, BCL10 / RFU, UHRF1BP1L / Fold change vs veh, UHRF1BP1L / RFU, BET1 / Fold change vs veh, BET1 / RFU, CNOT2 / Fold change vs veh, CNOT2 / RFU, ZNF268 / Fold change vs veh, ZNF268 / Fold change vs veh, ZNF507 / RFU, DGCR2 / Fold change vs veh, DGCR2 / RFU, WDSUB1 / Fold change vs veh, WDSUB1 / Fold change vs veh, HSP90B1 /// MIR3652 / RFU, ADSS / Fold change vs veh, ADSS / RFU, GK / Fold change vs veh, GK / RFU, ZNF148 / Fold change vs veh, ZNF148 / RFU, TAF9 / Fold change vs veh, TAF9 / RFU, SLC1A5 / Fold change vs veh, SLC1A5 / RFU, SLMO2 / Fold change vs veh, SLMO2 / RFU, ABCC4 / Fold change vs veh, ABCC4 / RFU, LOC101060439 /// RAP1B / Fold change vs veh, LOC101060439 /// RAP1B / RFU, RFX7 / Fold change vs veh, RFX7 / RFU, GTPBP10 / Fold change vs veh, GTPBP10 / RFU, CNEP1R1 / Fold change vs veh, CNEP1R1 / RFU, BIVM-ERCC5 /// ERCC5 / Fold change vs veh, BIVM-ERCC5 /// ERCC5 / RFU, ILF3 / Fold change vs veh, ILF3 / RFU 11762660_at / Fold change /veh 11762660_at / RFU VCAN (11757783_s_at) / Fold change /veh VCAN (11757783_s_at) / RFU DDX43 (11728927_at) / Fold change /veh DDX43 (11728927_at) / RFU KRT8 (11758188_x_at) / Fold change /veh KRT8 (11758188_x_at) / RFU NKD1 (11759106_at) / Fold change /veh NKD1 (11759106_at) / RFU SRD5A1 (11742802_a_at) / Fold change /veh SRD5A1 (11742802_a_at) / RFU TPSAB1 /// TPSB2 (11721975_s_at) / Fold change /veh TPSAB1 /// TPSB2 (11721975_s_at) / RFU GSTM3 (11746129_a_at) / Fold change /veh GSTM3 (11746129_a_at) / RFU IL23R (11737362_x_at) / Fold change /veh IL23R (11737362_x_at) / RFU TMEM51 (11727254_a_at) / Fold change /veh TMEM51 (11727254_a_at) / RFU PIWIL2 (11732686_x_at) / Fold change /veh PIWIL2 (11732686_x_at) / RFU ORM1 (11744905_x_at) / Fold change /veh ORM1 (11744905_x_at) / RFU CCDC152 (11743942_at) / Fold change /veh CCDC152 (11743942_at) / RFU ECM1 (11717891_a_at) / Fold change /veh ECM1 (11717891_a_at) / RFU IL23R (11748794_a_at) / Fold change /veh IL23R (11748794_a_at) / RFU TNFAIP8L3 (11732012_x_at) / Fold change /veh TNFAIP8L3 (11732012_x_at) / RFU MBOAT4 (11741988_at) / Fold change /veh MBOAT4 (11741988_at) / RFU 11764193_at / Fold change /veh 11764193_at / RFU TMEM53 (11763286_at) / Fold change /veh TMEM53 (11763286_at) / RFU MAGEB2 (11727129_at) / Fold change /veh MAGEB2 (11727129_at) / RFU TMEM200A (11744735_a_at) / Fold change /veh TMEM200A (11744735_a_at) / RFU CCDC152 (11751479_a_at) / Fold change /veh CCDC152 (11751479_a_at) / RFU FAM211A (11726209_a_at) / Fold change /veh FAM211A (11726209_a_at) / RFU RGS16 (11746705_a_at) / Fold change /veh RGS16 (11746705_a_at) / RFU VCAN (11755009_s_at) / Fold change /veh VCAN (11755009_s_at) / RFU RHOB (11743442_s_at) / Fold change /veh RHOB (11743442_s_at) / RFU RGS16 (11720943_a_at) / Fold change /veh RGS16 (11720943_a_at) / RFU RGS16 (11720944_at) / Fold change /veh RGS16 (11720944_at) / RFU, VPS4B / Fold change vs veh, VPS4B / RFU, CREB1 / Fold change vs veh, CREB1 / RFU, DNAJC13 / Fold change vs veh, DNAJC13 / RFU, GNAQ / Fold change vs veh, GNAQ / RFU, CDK5R1 / Fold change vs veh, CDK5R1 / RFU, ZRANB3 / Fold change vs veh, ZRANB3 / RFU, CUL4A / Fold change vs veh, CUL4A / RFU, CCNY / Fold change vs veh, CCNY / RFU, UFL1 / Fold change vs veh, UFL1 / RFU, COG3 / Fold change vs veh, COG3 / RFU, DIAPH2 / Fold change vs veh, DIAPH2 / RFU, SKA2 / Fold change vs veh, SKA2 / RFU, AFF3 / Fold change vs veh, AFF3 / RFU, LMF1 / Fold change vs veh, LMF1 / RFU, IPO11 / Fold change vs veh, IPO11 / RFU, DFFB / Fold change vs veh, DFFB / RFU, FOXP1 / Fold change vs veh, FOXP1 / RFU, CARD8 / Fold change vs veh, CARD8 / RFU, STRN3 / Fold change vs veh, STRN3 / RFU, ADK / Fold change vs veh, ADK / RFU, RASSF2 / Fold change vs veh, RASSF2 / RFU, WIPF1 / Fold change vs veh, WIPF1 / RFU, LARP1B / Fold change vs veh, LARP1B / RFU, RASA1 / Fold change vs veh, RASA1 / RFU, RB1 / Fold change vs veh, RB1 / RFU, PPFIA1 / Fold change vs veh, PPFIA1 / RFU, MAT2A / Fold change vs veh, MAT2A / RFU, CCT5 / Fold change vs veh, CCT5 / RFU, WDR92 / Fold change vs veh, WDR92 / RFU, CUX1 / Fold change vs veh, CUX1 / RFU, TTC7A / Fold change vs veh, TTC7A / RFU, TMEM135 / Fold change vs veh, TMEM135 / RFU, DEPTOR / Fold change vs veh, DEPTOR / RFU, CPM / Fold change vs veh, CPM / RFU, DNAJB6 / Fold change vs veh, DNAJB6 / RFU, CACNA2D3 / Fold change vs veh, CACNA2D3 / RFU, DTX4 / Fold change vs veh, DTX4 / RFU, TFCP2 / Fold change vs veh, TFCP2 / RFU, GMCL1 /// GMCL1P1 / Fold change vs veh, GMCL1 /// GMCL1P1 / RFU, AEBP2 / Fold change vs veh, AEBP2 / RFU, SNHG1 /// SNORD22 /// SNORD25 /// SNORD26 /// SNORD27 /// SNORD28 /// SNORD29 /// SNORD31 / Fold change vs veh, SNHG1 /// SNORD22 /// SNORD25 /// SNORD26 /// SNORD27 /// SNORD28 /// SNORD29 /// SNORD31 / Fold change (Aza/veh), C12orf56 (ProbeSet 11735607_a_at) / Fold change (ACY-1035/veh), C12orf56 (ProbeSet 11735607_a_at) / Fold change (Aza/veh), FGFR1OP (ProbeSet 11751329_s_at) / Fold change (ACY-1035/veh), FGFR1OP (ProbeSet 11751329_s_at) / Fold change (Aza/veh), VPS36 (ProbeSet 11739960_a_at) / Fold change (ACY-1035/veh), VPS36 (ProbeSet 11739960_a_at) / RFU SYPL1 (11715823_x_at) / Fold change /veh SYPL1 (11715823_x_at) / RFU IGFBP7 (11715501_s_at) / Fold change /veh IGFBP7 (11715501_s_at) / RFU REEP3 (11722064_at) / Fold change /veh REEP3 (11722064_at) / RFU IGLL1 (11728026_x_at) / Fold change /veh IGLL1 (11728026_x_at): dose or concentration left out as unconfirmed
Conditions: ProbeSet 11717914_a_at; LIST B

Nc1ncn([C@@H]2O[C@H](CO)[C@@H](O)[C@H]2O)c(=O)n1 [azacitidine]
RFU, BIVM-ERCC5 /// ERCC5: 162.65 RFU

Reference: publication PMC5218480 (PLoS ONE, 2017)
